Experiments:
[1] = Antiproliferative activity against HEK293T cells at 5 uM incubated for 48 hrs by MTT assay relative to control; assay type: toxicity, cell-based, HEK-293T; conditions: human
K562 [2] = experiment: Antiproliferative activity against human K562 cells at 5 uM incubated for 48 hrs by MTT assay relative to control; assay type: functional
PC-3 [3] = experiment: Antiproliferative activity against human PC-3 cells at 5 uM incubated for 48 hrs by MTT assay relative to control; assay type: functional
A549 [4] = experiment: Antiproliferative activity against human A549 cells at 5 uM incubated for 48 hrs by MTT assay relative to control; assay type: functional
HeLa [5] = experiment: Antiproliferative activity against human HeLa cells at 5 uM incubated for 48 hrs by MTT assay relative to control; assay type: functional
PC-3 [6] = experiment: Antiproliferative activity against human PC-3 cells incubated for 48 hrs by MTT assay; assay type: functional, cell-based
[7] = Antiproliferative activity against HEK293T cells incubated for 48 hrs by MTT assay; assay type: toxicity, cell-based, HEK-293T; conditions: human
PC-3 [8] = experiment: Antiproliferative activity against human PC-3 overexpressing WRN cells incubated for 48 hrs by MTT assay; assay type: functional
K562 [9] = experiment: Antiproliferative activity against human K562 cells incubated for 48 hrs by MTT assay; assay type: functional, cell-based; conditions: K562, 48 h
A549 [10] = experiment: Antiproliferative activity against human A549 cells incubated for 48 hrs by MTT assay; assay type: functional, cell-based; conditions: A549, 48 h
HeLa [11] = experiment: Antiproliferative activity against human HeLa cells incubated for 48 hrs by MTT assay; assay type: functional, cell-based

| Compound | inhibition at 48 h, 5 µM [1] [%] | inhibition at 5 µM (K562 [2]) [%] | inhibition at 5 µM (PC-3 [3]) [%] | inhibition at 5 µM (A549 [4]) [%] | inhibition at 5 µM (HeLa [5]) [%] | IC50 (PC-3 [6]; PC-3, 48 h) [µM] | IC20 (PC-3 [6]; PC-3, time 48 hrs) [µM] | IC50 at 48 h [7] [µM] | IC20 (PC-3 [8]) [µM] | IC50 (K562 [9]) [µM] | IC50 (A549 [10]) [µM] | IC50 (HeLa [11]) [µM] |
| --- | --- | --- | --- | --- | --- | --- | --- | --- | --- | --- | --- | --- |
| COC(=O)c1ccc(Nc2nc(C(=O)c3ccc(F)cc3)nc3ccccc23)cc1 | 18.9 | 6.8 | 19 | 35.7 | 37.8 | – | – | – | – | – | – | – |
| O=C(c1ccccc1)c1nc(Nc2ccc(OC(F)(F)F)cc2)c2cc(F)ccc2n1 | 23 | 19.3 | 47.6 | 42.2 | 27.8 | – | – | – | – | – | – | – |
| COC(=O)c1ccc(N(C)c2nc(C(=O)c3ccc(F)cc3)nc3ccccc23)cc1OC | 38 | 40.2 | 43.6 | 21.9 | 31.2 | – | – | – | – | – | – | – |
| CC(C)[C@H](N)c1nc(Nc2ccc(N3CCOCC3)cc2)c2ccccc2n1 | 1.2 | 8.2 | 2.1 | -0.7 | 6.5 | – | – | – | – | – | – | – |
| CCOC(=O)c1[nH]c(-c2ccc(Nc3nc(C(=O)c4ccccc4)nc4ccc(F)cc34)cc2)nc1C | 58.3 | 55.4 | 44.5 | 40.6 | 34.9 | 5.7 | 7.51 | 6.2 | 6.6 | 8 | > 10 | > 10 |
| COc1ccc(Nc2nc(C(=O)c3ccccc3)nc3ccc(F)cc23)cc1 | 2.4 | 0.5 | 3.4 | 2.9 | 2 | – | – | – | – | – | – | – |
| COc1cccc2c1C(=O)c1c(O)c3c(c(O)c1C2=O)C[C@@](O)(C(=O)CO)C[C@@H]3O[C@H]1C[C@H](N)[C@H](O)[C@H](C)O1 [DOXORUBICIN] | 81.1 | 61 | 80.1 | 30.1 | 71.7 | – | – | 2.4 | – | 2.3 | 4.4 | – |
| COc1cccc(C(=O)c2nc(Nc3ccc(OC)c(OC)c3)c3ccccc3n2)c1 | 5.5 | 8.7 | -10.2 | 47.4 | 41.1 | – | – | – | – | – | – | – |
| CC(C)[C@H](N)c1nc(N(C)c2ccc(OC(F)(F)F)cc2)c2ccccc2n1 | 25.5 | 81.4 | 7 | 56.2 | 11.3 | – | – | – | – | – | – | – |
| O=C(c1ccccc1)c1nc(Nc2ccc(N3CCOCC3)cc2)c2cc(F)ccc2n1 | 29.7 | 28.1 | 3.1 | 39.3 | 31.1 | – | – | – | – | – | – | – |
| COc1cc(N(C)c2nc(C(=O)c3ccc(F)cc3)nc3ccccc23)ccc1C(=O)O | 5.3 | 6.4 | -8.9 | 5.1 | 12.3 | – | – | – | – | – | – | – |
| COC(=O)c1ccc(Nc2nc(C(=O)c3cccc(OC)c3)nc3ccccc23)cc1OC | 14.5 | 9.5 | 48.3 | 40.1 | 37.7 | – | – | – | – | – | – | – |
| COC(=O)c1ccc(Nc2nc(C(=O)c3ccccc3)nc3ccc(F)cc23)cc1 | 11.1 | 19.5 | 29.3 | 17.7 | 0.8 | – | – | – | – | – | – | – |
| CC(C)[C@H](N)c1nc(Nc2ccc(OC(F)(F)F)cc2)c2ccccc2n1 | 4.4 | 7.2 | 13.3 | 11.4 | 2.6 | – | – | – | – | – | – | – |
| COC(=O)c1ccc(Nc2nc(C(=O)c3ccc(F)cc3)nc3ccccc23)cc1OC | 4.6 | 8.5 | -5.7 | 8.5 | 8.2 | – | – | – | – | – | – | – |
| O=C(c1ccc(F)cc1)c1nc(Nc2ccc(N3CCNCC3)c(F)c2)c2ccccc2n1 | 9.5 | -10.7 | -9.6 | 4.1 | 11.3 | – | – | – | – | – | – | – |
